Measurements published in US8969386B2, “Modulators of CFTR” (Vertex Pharmaceuticals Incorporated, priority 2007, dated 2015).

Molecular target: T1, ΔF508-CFTR (Homo sapiens, UniProt P13569, DEL508-508)
T1 construct: expressed in transfected cells
Experiment: ΔF508-CFTR correction, membrane potential optical (FRET/VIPR) assay
Type: cell-based
Conditions: NIH3T3 mouse fibroblasts stably expressing ΔF508-CFTR; for Emax: read-out: % Efficacy
Source text: Assays for Detecting and Measuring ΔF508-CFTR Correction Properties of Compounds
Membrane potential optical methods for assaying ΔF508-CFTR modulation properties of compounds
The optical membrane potential assay utilized voltage-sensitive FRET sensors described by Gonzalez and Tsien (See Gonzalez, J. E. and R. Y. Tsien (1995) “Voltage sensing by fluorescence resonance energy transfer in single cells” Biophys J 69(4): 1272-80, and Gonzalez, J. E. and R. Y. Tsien (1997) “Improved indicators of cell membrane potential that use fluorescence resonance energy transfer” Chem Biol 4(4): 269-77) in combination with instrumentation for measuring fluorescence changes such as the Voltage/Ion Probe Reader (VIPR) (See Gonzalez, J. E., K. Oades, et al. (1999) “Cell-based assays and instrumentation for screening ion-channel targets” Drug Discov Today 4(9): 431-439).
These voltage sensitive assays are based on the change in fluorescence resonant energy transfer (FRET) between the membrane-soluble, voltage-sensitive dye, DiSBAC2(3), and a fluorescent phospholipid, CC2-DMPE, which is attached to the outer leaflet of the plasma membrane and acts as a FRET donor. Changes in membrane potential (Vm) cause the negatively charged DiSBAC2(3) to redistribute across the plasma membrane and the amount of energy transfer from CC2-DMPE changes accordingly. The changes in fluorescence emission were monitored using VIPR™ II, which is an integrated liquid handler and fluorescent detector designed to conduct cell-based screens in 96- or 384-well microtiter plates.
1. Identification of Correction Compounds
To identify small molecules that correct the trafficking defect associated with ΔF508-CFTR; a single-addition HTS assay format was developed. The cells were incubated in serum-free medium for 16 hrs at 37° C. in the presence or absence (negative control) of test compound. As a positive control, cells plated in 384-well plates were incubated for 16 hrs at 27° C. to “temperature-correct” ΔF508-CFTR. The cells were subsequently rinsed 3× with Krebs Ringers solution and loaded with the voltage-sensitive dyes. To activate ΔF508-CFTR, 10 μM forskolin and the CFTR potentiator, genistein (20 μM), were added along with Cl^−-free medium to each well. The addition of Cl^−-free medium promoted Cl^− efflux in response to ΔF508-CFTR activation and the resulting membrane depolarization was optically monitored using the FRET-based voltage-sensor dyes.
NIH3T3 mouse fibroblasts stably expressing ΔF508-CFTR are used for optical measurements of membrane potential. The cells are maintained at 37° C. in 5% CO2 and 90% humidity in Dulbecco's modified Eagle's medium supplemented with 2 mM glutamine, 10% fetal bovine serum, 1×NEAA, β-ME, 1× pen/strep, and 25 mM HEPES in 175 cm^2 culture flasks. For all optical assays, the cells were seeded at 30,000/well in 384-well matrigel-coated plates and cultured for 2 hrs at 37° C. before culturing at 27° C. for 24 hrs for the potentiator assay. For the correction assays, the cells are cultured at 27° C. or 37° C. with and without compounds for 16-24 hours Electrophysiological Assays for assaying ΔF508-CFTR modulation properties of compounds

T1 sequence (P13569 with tags, fused parts or gaps DEL508-508): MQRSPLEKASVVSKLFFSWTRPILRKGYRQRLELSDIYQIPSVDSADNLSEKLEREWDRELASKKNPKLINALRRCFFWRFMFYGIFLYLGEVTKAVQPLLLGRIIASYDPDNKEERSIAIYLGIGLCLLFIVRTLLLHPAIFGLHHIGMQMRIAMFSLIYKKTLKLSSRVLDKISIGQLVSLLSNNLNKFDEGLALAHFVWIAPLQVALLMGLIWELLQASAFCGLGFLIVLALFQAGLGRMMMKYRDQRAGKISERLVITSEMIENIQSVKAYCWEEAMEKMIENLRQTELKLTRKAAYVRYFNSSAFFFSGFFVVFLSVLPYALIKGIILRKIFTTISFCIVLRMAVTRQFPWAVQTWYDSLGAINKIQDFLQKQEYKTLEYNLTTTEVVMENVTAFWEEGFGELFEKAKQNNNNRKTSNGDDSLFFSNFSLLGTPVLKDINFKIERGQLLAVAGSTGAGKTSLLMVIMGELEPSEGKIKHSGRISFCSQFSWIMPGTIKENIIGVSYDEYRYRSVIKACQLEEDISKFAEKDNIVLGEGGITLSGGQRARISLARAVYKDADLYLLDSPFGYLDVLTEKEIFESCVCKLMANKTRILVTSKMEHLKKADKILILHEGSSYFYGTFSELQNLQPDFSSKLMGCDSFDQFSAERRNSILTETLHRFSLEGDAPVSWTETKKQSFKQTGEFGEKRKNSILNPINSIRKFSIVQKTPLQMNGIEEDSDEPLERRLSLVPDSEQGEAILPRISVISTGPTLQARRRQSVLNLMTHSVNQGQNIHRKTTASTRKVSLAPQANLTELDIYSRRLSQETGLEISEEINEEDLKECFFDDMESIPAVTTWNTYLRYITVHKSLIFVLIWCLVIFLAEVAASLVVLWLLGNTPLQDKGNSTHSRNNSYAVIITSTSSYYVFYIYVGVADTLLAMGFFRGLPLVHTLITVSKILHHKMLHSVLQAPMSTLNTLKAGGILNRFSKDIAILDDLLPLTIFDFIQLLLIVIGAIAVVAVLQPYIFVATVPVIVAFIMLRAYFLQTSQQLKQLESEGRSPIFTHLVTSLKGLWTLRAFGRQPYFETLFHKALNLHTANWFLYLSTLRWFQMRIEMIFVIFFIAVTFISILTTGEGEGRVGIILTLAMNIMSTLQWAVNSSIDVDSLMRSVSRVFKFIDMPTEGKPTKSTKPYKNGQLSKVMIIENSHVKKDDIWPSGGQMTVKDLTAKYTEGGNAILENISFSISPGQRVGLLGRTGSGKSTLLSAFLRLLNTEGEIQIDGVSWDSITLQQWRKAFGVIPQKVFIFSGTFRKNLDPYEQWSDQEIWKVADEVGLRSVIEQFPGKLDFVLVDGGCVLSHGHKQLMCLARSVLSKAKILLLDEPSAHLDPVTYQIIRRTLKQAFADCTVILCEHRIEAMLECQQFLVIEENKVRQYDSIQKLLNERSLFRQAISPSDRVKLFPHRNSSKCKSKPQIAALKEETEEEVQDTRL

Structure (SMILES)	EC50	Emax
Cc1cc(NC(=O)C2(c3ccc4c(c3)OC(F)(F)O4)CC2)nc(-c2ccc(=O)[nH]c2)c1C#N [Compound 96]	< 2000 nM	> 100%
COc1cc(-c2nc(NC(=O)C3(c4ccc5c(c4)OC(F)(F)O5)CC3)ccc2C)cc(C)n1 [Compound 105]	< 2000 nM	50 to 100%
Cc1cc(NC(=O)C2(c3ccc4c(c3)OCC4)CC2)nc(-c2ccc(=O)[nH]c2)c1 [Compound 98]	< 2000 nM	50 to 100%
COc1ccc(C2(C(=O)Nc3ccc(C)c(-c4c[nH]c(=O)c(C)c4)n3)CC2)cc1Cl [Compound 62]	< 2000 nM	50 to 100%
COc1ncccc1-c1cccc(NC(=O)C2(c3ccc4c(c3)OCO4)CC2)n1 [Compound 93]	< 2000 nM	> 100%
Cc1ccc(NC(=O)C2(c3ccc4c(c3)OC(F)(F)O4)CC2)nc1-c1c[nH]c(=O)c(C)c1 [Compound 6]	< 2000 nM	> 100%
Cc1cc(NC(=O)C2(c3ccc4c(c3)CCO4)CC2)nc(-c2ccc[nH]c2=O)c1C [Compound 114]	< 2000 nM	50 to 100%
Cc1ccc(NC(=O)C2(c3ccc4c(c3)OC(F)(F)O4)CC2)nc1-c1ccc(=O)n(CCO)c1 [Compound 20]	< 2000 nM	> 100%
Cc1cc(NC(=O)C2(c3ccc4c(c3)OC(F)(F)O4)CC2)nc(-c2cc[nH]c(=O)c2)c1 [Compound 19]	< 2000 nM	> 100%
COc1ccc(C2(C(=O)Nc3ccc(C)c(-c4ccc[nH]c4=O)n3)CC2)cc1 [Compound 10]	< 2000 nM	50 to 100%
Cc1ccc(NC(=O)C2(c3ccc4c(c3)OC(F)(F)O4)CC2)nc1-c1cc(F)c[nH]c1=O [Compound 82]	< 2000 nM	> 100%
Cc1cc(NC(=O)C2(c3ccc4c(c3)OC(F)(F)O4)CC2)nc(-c2c[nH]c(=O)c(C)c2)c1 [Compound 107]	< 2000 nM	> 100%
COc1ncccc1-c1nc(NC(=O)C2(c3ccc4c(c3)OC(F)(F)O4)CC2)ccc1C [Compound 15]	< 2000 nM	> 100%
COc1cc(-c2nc(NC(=O)C3(c4ccc5c(c4)CCO5)CC3)cc(C)c2C)ccn1 [Compound 102]	< 2000 nM	50 to 100%
COc1ccc(-c2nc(NC(=O)C3(c4ccc5c(c4)CCO5)CC3)cc(C)c2C)cn1 [Compound 101]	< 2000 nM	> 100%
Cc1cc(NC(=O)C2(c3ccc4c(c3)OC(F)(F)O4)CC2)nc(-c2ccc(=O)[nH]c2C)c1 [Compound 117]	< 2000 nM	> 100%
COc1ccc(-c2cc(C)cc(NC(=O)C3(c4ccc5c(c4)OC(F)(F)O5)CC3)n2)cn1 [Compound 38]	< 2000 nM	> 100%
Cc1cc(NC(=O)C2(c3ccc4c(c3)CCO4)CC2)nc(-c2ccc(=O)[nH]c2)c1 [Compound 68]	< 2000 nM	50 to 100%
Cc1cc(NC(=O)C2(c3ccc4c(c3)OC(F)(F)O4)CC2)nc(-c2ccn(CCO)c(=O)c2)c1 [Compound 64]	< 2000 nM	> 100%
Cc1cc(NC(=O)C2(c3ccc4c(c3)CCO4)CC2)nc(-c2ccc[nH]c2=O)c1 [Compound 69]	< 2000 nM	50 to 100%
Cc1ccc(NC(=O)C2(c3ccc4c(c3)OCO4)CC2)nc1-c1ccc(=O)[nH]c1 [Compound 49]	< 2000 nM	50 to 100%
COc1cc(C)c(-c2nc(NC(=O)C3(c4ccc5c(c4)OC(F)(F)O5)CC3)ccc2C)cn1 [Compound 18]	< 2000 nM	> 100%
Cc1cc(NC(=O)C2(c3ccc4c(c3)CCO4)CC2)nc(-c2cc[nH]c(=O)c2)c1 [Compound 70]	< 2000 nM	50 to 100%
Cc1ccc(NC(=O)C2(c3ccc4c(c3)OC(F)(F)O4)CC2)nc1-c1cccc(=O)[nH]1 [Compound 50]	< 2000 nM	50 to 100%
CC(=O)Nc1cc(-c2nc(NC(=O)C3(c4ccc5c(c4)OC(F)(F)O5)CC3)ccc2C)c[nH]c1=O [Compound 4]	< 2000 nM	50 to 100%

Structure (SMILES)	EC50	Emax
COc1ccc(-c2cccc(NC(=O)C3(c4ccc5c(c4)OCO5)CC3)n2)cn1 [Compound 94]	2000 to 5000 nM	> 100%
COc1ccc(-c2nc(NC(=O)C3(c4ccc5c(c4)OC(F)(F)O5)CC3)cc(C)c2C)c(C)n1 [Compound 103]	< 2000 nM	> 100%
Cc1cc(=O)[nH]cc1-c1nc(NC(=O)C2(c3ccc4c(c3)OC(F)(F)O4)CC2)cc(C)c1C [Compound 90]	< 2000 nM	> 100%
Cc1cc(NC(=O)C2(c3ccc4c(c3)OC(F)(F)O4)CC2)nc(-c2ccc[nH]c2=O)c1C [Compound 66]	< 2000 nM	> 100%
COc1ncc(C)cc1-c1nc(NC(=O)C2(c3ccc4c(c3)OC(F)(F)O4)CC2)cc(C)c1C [Compound 88]	< 2000 nM	> 100%
Cc1ccc(NC(=O)C2(c3ccc4c(c3)OC(F)(F)O4)CC2)nc1-c1ccc(=O)[nH]c1C [Compound 40]	< 2000 nM	> 100%
Cc1cc(NC(=O)C2(c3ccc4c(c3)OC(F)(F)O4)CC2)nc(-c2cc[nH]c(=O)c2)c1C [Compound 67]	< 2000 nM	> 100%
Cc1ccc(NC(=O)C2(c3ccc4c(c3)OC(F)(F)O4)CC2)nc1-c1ccc[nH]c1=O [Compound 46]	< 2000 nM	50 to 100%
Cc1cc(NC(=O)C2(c3ccc4c(c3)OC(F)(F)O4)CC2)nc(-c2ccc[nH]c2=O)c1 [Compound 17]	< 2000 nM	> 100%
Cc1ccc(NC(=O)C2(c3ccc4c(c3)OCC4)CC2)nc1-c1ccc(=O)[nH]c1 [Compound 99]	< 2000 nM	> 100%
Cc1ccc(NC(=O)C2(c3ccc4c(c3)OC(F)(F)O4)CC2)nc1-c1ccn(C)c(=O)c1 [Compound 41]	< 2000 nM	> 100%
O=C(Nc1ccc(Cl)c(-c2ccc(=O)[nH]c2)n1)C1(c2ccc3c(c2)OC(F)(F)O3)CC1 [Compound 22]	< 2000 nM	50 to 100%
Cc1ccc(NC(=O)C2(c3ccc4c(c3)OC(F)(F)O4)CC2)nc1-c1c[nH]c(=O)c(N)c1 [Compound 77]	< 2000 nM	> 100%
Cc1ccc(NC(=O)C2(c3ccc4c(c3)OC(F)(F)O4)CC2)nc1-c1ccc(=O)n(CCS(C)(=O)=O)c1 [Compound 95]	< 2000 nM	> 100%
Cc1ccc(NC(=O)C2(c3ccc4c(c3)OC(F)(F)O4)CC2)nc1-c1ccc(=O)[nH]c1 [Compound 12]	< 2000 nM	50 to 100%
COc1ncc(-c2nc(NC(=O)C3(c4ccc5c(c4)OC(F)(F)O5)CC3)ccc2C)cc1Cl [Compound 71]	< 2000 nM	> 100%
COc1cccc(C2(C(=O)Nc3ccc(C)c(-c4c[nH]c(=O)c(C)c4)n3)CC2)c1 [Compound 63]	< 2000 nM	50 to 100%
Cc1ccc(NC(=O)C2(c3ccc4c(c3)OC(F)(F)O4)CC2)nc1-c1ccc(=O)n(C)c1 [Compound 52]	< 2000 nM	50 to 100%
Cc1ccc(NC(=O)C2(c3ccc4c(c3)OC(F)(F)O4)CC2)nc1-c1cc[nH]c(=O)c1Cl [Compound 86]	< 2000 nM	> 100%
Cc1ccc(NC(=O)C2(c3ccc4c(c3)CCO4)CC2)nc1-c1ccc(=O)[nH]c1 [Compound 78]	< 2000 nM	50 to 100%
Cc1ccc(NC(=O)C2(c3ccc4c(c3)OC(F)(F)O4)CC2)nc1-c1c[nH]c(=O)c(C#N)c1 [Compound 42]	< 2000 nM	50 to 100%
Cc1ccc(NC(=O)C2(c3ccc4c(c3)OC(F)(F)O4)CC2)nc1-c1ccn(CC(=O)O)c(=O)c1 [Compound 47]	< 2000 nM	< 50%
COc1ncccc1-c1cc(C)cc(NC(=O)C2(c3ccc4c(c3)OC(F)(F)O4)CC2)n1 [Compound 48]	< 2000 nM	> 100%
Cc1ccc(NC(=O)C2(c3ccc4c(c3)COC4)CC2)nc1-c1c[nH]c(=O)c(C)c1 [Compound 59]	2000 to 5000 nM	50 to 100%
COc1ncc(-c2nc(NC(=O)C3(c4ccc5c(c4)OC(F)(F)O5)CC3)ccc2C)cc1C(=O)O [Compound 53]	< 2000 nM	> 100%
